Structures are written as SMILES.

One test relates to A549. As to the kind of experiment: Growth inhibition of human A549 cells after 4 days by SRB assay. To be noted: A549, 96 h. The class given is functional. Background: The SRB assay estimates cell density from bound dye.
A further test concerns PC-3. The experiment in a line: Growth inhibition of human PC3 cells after 4 days by SRB assay. The class given is functional. To be noted: PC-3, 96 h.

What is called GI50 is the concentration at which growth is held to half of that of the control. Higher therefore signals lower sensitivity of the cells. Consider `CC(=O)O[C@H]1C(=O)[C@@]2(C)[C@H]([C@H](OC(=O)c3ccccc3)[C@]3(O)C[C@H](OC(=O)[C@H](O)[C@@H](NC(=O)c4ccccc4)c4ccccc4)C(C)=C1C3(C)C)[C@]1(OC(C)=O)CO[C@@H]1C[C@@H]2O` [PACLITAXEL], for which the GI50 with A549 was determined as 3.7 nM; in the test with PC-3, 5.8 nM.

As to `COCCOCCC(=O)NCCCC[C@H]1C(=O)C(C)(C)[C@@H](O)CC(=O)O[C@H](/C(C)=C/c2csc(C)n2)C[C@@H]2O[C@]2(C)CCC[C@H](C)[C@@H]1O`, the values for the GI50 in the test with A549 and with PC-3 were 0.9 nM and 1.9 nM, respectively.

With `CC(=O)NCCCC[C@H]1C(=O)C(C)(C)[C@@H](O)CC(=O)O[C@H](/C(C)=C/c2csc(C)n2)C[C@@H]2O[C@]2(C)CCC[C@H](C)[C@@H]1O`, the GI50 in the test with A549 was 1 nM; in the test with PC-3, 2 nM.

In the case of `C/C(=C\c1csc(C)n1)[C@@H]1C[C@@H]2O[C@]2(C)CCC[C@H](C)[C@H](O)[C@@H](C)C(=O)C(C)(C)[C@@H](O)CC(=O)O1` [PATUPILONE], the values for the GI50 with A549 and with PC-3 were 0.7 nM and 1.7 nM, respectively.

Source of the values: ChEMBL document CHEMBL4033765, “Synthesis and Evaluation of a Linkable Functional Group-Equipped Analogue of the Epothilones” (2017).
